Structures can show the parent of a compound that is named as a salt.
Assays:
trypsin = molecular target: T1, trypsin (Bos taurus, UniProt P00760); test: Chromogenic assay, trypsin inhibition (substrate S2222); format: biochemical; conditions: in vitro; bovine pancreatic trypsin; Ki calculated from substrate Km and IC50; pH 8.0, 30° C.
T1 construct: from tissue; host or cells: bovine pancreas
T1 sequence (P00760 24-246): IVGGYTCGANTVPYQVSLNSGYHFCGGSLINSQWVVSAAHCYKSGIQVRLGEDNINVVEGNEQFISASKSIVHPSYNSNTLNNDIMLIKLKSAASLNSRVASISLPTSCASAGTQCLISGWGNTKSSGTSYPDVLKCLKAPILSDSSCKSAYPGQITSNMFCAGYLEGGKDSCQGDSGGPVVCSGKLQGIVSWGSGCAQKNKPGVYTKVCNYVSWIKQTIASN
Description: (§1) The biological activities of the compounds of the present invention were determined by the following test methods.
(§2) The inhibition of thrombin, trypsin, plasmin or factor Xa is measured in 96 well plate chromogenic assays. The percentage inhibition and IC50 are calculated from triplicate samples of an 8 concentration dose-response curve. From the substrate Km and IC50, the Ki for each inhibitor is calculated. All assays are carried out in a total incubation of 200 μl of 50 mM HEPES and 150 mM NaCl at pH 8.0, and all compound dilutions are preincubated with enzyme at room temperature for 15 minutes prior to addition of substrate. After 30 minutes incubation at 30° C., the O.D. is measured at […] in a 96 well plate reader. Thrombin activity is measured using bovine thrombin and S2238 (H-D-Phe-Pip-Arg-pNA), bovine pancreatic trypsin is assayed with S2222 (Benz-Isoleu-Glu-Gly-Arg-pNA), bovine plasma plasmin is assayed with Chromozym PL (Tosyl-Gly-Pro-Lys-pNA)and bovine fac or Xa is assayed in 50 mM Tris, 150 mM NaCl, pH 7.5 buffer with S2222.

thrombin = thrombin (Bos taurus, UniProt P00735); test: Chromogenic assay, thrombin inhibition (substrate S2238); format: biochemical; conditions: in vitro; bovine thrombin; Ki calculated from substrate Km and IC50; pH 8.0, 30° C.
Description: as §1, §2

Row | SMILES | Ki (trypsin) | Ki (thrombin)
1 | C[C@@H]1CCN(C(=O)[C@H](CC2=CCCN(C(=N)N)C2)NS(=O)(=O)c2ccc3c(c2)CN(C)CC3)[C@H](C(=O)O)C1 [Example 5, 4(R)-Methyl-1-[N-(2-methyl-1,2,3,4-tetrahydroisoquinoline-7-sulphonyl)-3-(1-amidino-1,2,5,6-tetrahydro-3-pyridyl)-(S)-alanyl]piperidine-2(S-carboxylicacid dihydrochloride] | 2400 nM | 1.9 nM
2 | C[C@H]1CCN(C(=O)[C@H](CC2=CCCN(C(=N)N)C2)NS(=O)(=O)c2ccc3c(c2)CN(C)CC3)[C@@H](C(=O)O)C1 [Example 6, 4(S)-Methyl-1-[N-(2-methyl-1,2,3,4-tetrahydroisoquinoline-7-sulphonyl)-3-(1-amidino-1,2,5,6-tetrahydro-3-pyridyl)-(S)-alanyl]piperidine-2(R)-carboxylic acid dihydrochloride] | 690 nM | 9.9 nM

Source: US5798352A, “Antithrombotic amidinotetrahydropyridylalanine derivatives” (Pfizer Inc., priority 1995, dated 1998)
